Measurements as given in patent publication US20180099961A1, “PROTEIN KINASE INHIBITORS” (Princeton Drug Discovery Inc, priority 2016, published 2018).
Like-named read-outs stand apart in the source and are kept apart here.

Tests used:
[1] = Pharmacokinetics in Sprague-Dawley rats, 2-in-1 dosing; type: in vivo; details: for clearance / Vd / AUC(0-inf) / AUC(0-t) / half-life / bioavailability / Cmax / Tmax: Sprague-Dawley, rat; for clearance / Vd / AUC(0-inf) / AUC(0-t) / half-life / bioavailability: plasma; for clearance: read-out: CL (plasma clearance) (converted); for Vd: read-out: V (volume of distribution); for AUC(0-inf) / AUC(0-t) / half-life / Cmax / Tmax: single dose; for bioavailability: read-out: F (percent oral bioavailability); for intravenous plasma clearance compared to dasatinib and compound III / intravenous volume of distribution compared to dasatinib and compound III: Sprague-Dawley rats
Experimental: Sprague-Dawley rats (approximate weight 275-300 g, N=3) were dosed intravenously at 5 mL/kg and orally at 10 mL/kg with the above dosing solutions. Blood samples were collected into tubes containing EDTA as the anticoagulant at 0, 0.25 (intravenous only), 0.5, 1, 2, 4, 8, 10, and 24 h post-dosing, and plasma samples were prepared by centrifugation. The plasma samples were mixed with 3× volumes of acetonitrile containing 100 nM reserpine as the internal standard, and centrifuged at 4000 RPM for 15 min. The supernatants were injected for LC/MS analysis which were carried out on a AB Sciex 4000 Q Trap LC/MS/MS system coupled with Shimadzu Prominence UFLCXR 20 series (including a CBM-20A controller, two LC-20ADXR solvent delivery units, SIL-20AC HT autosampler, CTO-20A column oven, and a SPD-20A UV detector). The samples were separated on a Phenomenex Columbus column (C18, 4 μm, 50×2 mm) eluted with two solvent systems: 2 mM ammonium acetate in water containing 0.1% formic acid (A) and methanol (B) at a linear gradient starting with 25% B. Electrospray ionization in positive mode was used to acquire LC/MS/MS data.

[2] = Metabolic stability in human liver microsomes; type: in vitro ADME; details: for metabolic stability as compared to dasatinib: human liver microsomes; for microsomal CLint at 1 μM / half-life at 1 μM: human, liver microsomes, human liver microsomes 0.5 mg/mL, NADPH and UDPGA, 37° C.; for microsomal CLint at 1 μM: read-out: CLint (intrinsic clearance); for half-life at 1 μM: read-out: In vitro t1/2
Experimental: FIG. 1. Metabolic stability of compounds in human liver microsomal incubations. […] Concentrations at specified times were determined by LC-MS/MS.
The incubation reactions at various time points were quenched by adding 2× volumes of acetonitrile containing 100 nM reserpine. The quenched incubation samples were centrifuged at 4000 RPM for 10 min, and the supernatants injected for LC/MS/MS analysis. LC/MS/MS analysis was carried out on a AB Sciex 4000 Q Trap LC/MS/MS system coupled with Shimadzu Prominence UFLCXR 20 series (including a CBM-20A controller, two LC-20ADXR solvent delivery units, SIL-20AC HT autosampler, CTO-20A column oven, and a SPD-20A UV detector).

[3] = biological target: T1, BTK (Homo sapiens, UniProt Q06187); experiment: Off-chip Mobility Shift Assay; type: biochemical; details: read-out: IC50, recombinant BTK activity
T1 construct: purchased Carna Biosciences

[4] = system: RAF1; experiment: Off-chip Mobility Shift Assay; type: biochemical
[5] = iv, 1 mg/kg, intravenous 1 mg/kg, single dose (Table 2)
[6] = iv, 1 mg/kg, intravenous 1 mg/kg, single dose (Table 3)
[7] = iv, 1 mg/kg, intravenous 1 mg/kg, plasma (Table 2)
[8] = iv, 1 mg/kg, intravenous 1 mg/kg, plasma (Table 2), read-out: t1/2 (converted)
[9] = iv, 1 mg/kg, intravenous 1 mg/kg, plasma (Table 3)
[10] = iv, 1 mg/kg, intravenous 1 mg/kg, plasma (Table 3), read-out: t½ (converted)
[11] = po, 2.5 mg/kg, PO 2.5 mg/kg, plasma (Table 2)
[12] = po, 2.5 mg/kg, PO 2.5 mg/kg, plasma (Table 2), read-out: t1/2 (converted)
[13] = po, 5 mg/kg, PO 5 mg/kg, plasma (Table 3)
[14] = po, 5 mg/kg, PO 5 mg/kg, plasma (Table 3), read-out: t½ (converted)
[15] = PO 2.5 mg/kg versus intravenous 1 mg/kg, AUCinf dose normalized (Table 2)

T1 sequence (Q06187 whole entry): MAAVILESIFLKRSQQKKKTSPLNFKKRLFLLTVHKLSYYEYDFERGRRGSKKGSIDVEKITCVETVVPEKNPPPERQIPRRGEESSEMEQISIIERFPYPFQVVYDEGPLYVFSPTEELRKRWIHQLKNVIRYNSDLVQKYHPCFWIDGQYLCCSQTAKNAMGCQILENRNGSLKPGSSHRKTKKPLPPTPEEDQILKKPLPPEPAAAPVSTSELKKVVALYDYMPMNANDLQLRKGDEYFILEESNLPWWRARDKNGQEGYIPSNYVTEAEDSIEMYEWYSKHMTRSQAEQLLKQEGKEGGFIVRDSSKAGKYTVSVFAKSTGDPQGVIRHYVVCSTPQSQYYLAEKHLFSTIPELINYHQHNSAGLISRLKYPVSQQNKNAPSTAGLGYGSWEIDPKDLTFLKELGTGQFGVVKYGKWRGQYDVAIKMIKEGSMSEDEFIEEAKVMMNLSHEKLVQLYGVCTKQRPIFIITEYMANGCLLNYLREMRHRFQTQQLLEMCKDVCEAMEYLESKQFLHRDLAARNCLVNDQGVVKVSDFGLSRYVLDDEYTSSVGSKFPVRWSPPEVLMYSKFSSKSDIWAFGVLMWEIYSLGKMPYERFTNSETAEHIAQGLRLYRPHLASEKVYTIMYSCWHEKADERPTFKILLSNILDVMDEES

Row | SMILES | clearance [1, 5] | Vd [1, 5] | AUC(0-inf) [1, 7] | AUC(0-t) [1, 7] | half-life [1, 8] | AUC(0-inf) [1, 11] | AUC(0-t) [1, 11] | half-life [1, 12] | bioavailability [1, 15] | Cmax ([1]; PO 2.5 mg/kg, plasma (Table 2)) | Tmax ([1]; PO 2.5 mg/kg, plasma (Table 2)) | metabolic stability as compared to dasatinib [2] | microsomal CLint at 1 μM [2] | half-life at 1 μM [2] | other results
1 | Cc1nc(Nc2ncc(C(=O)Nc3c(C)cccc3Cl)s2)cc(N2CCN(CCO)CC2)n1 [Dasatinib, reference compound] | 21.3 mL/min/kg | 3 L/kg | 784 ± 54 ng·h/mL | 783 ± 54 ng·h/mL | 1.5 h | 196 ± 85 ng·h/mL | 193 ± 86 ng·h/mL | 3.5 ± 0.5 h | 9.8 ± 3.6% | 15 ± 5 ng/mL | 5.5 ± 4.3 h |  |  |  | clearance [1, 6]: 16.5 mL/min/kg; Vd [1, 6]: 2 L/kg; AUC(0-inf) [1, 9]: 1010 ± 68 ng·h/mL; AUC(0-t) [1, 9]: 1010 ± 68 ng·h/mL; half-life [1, 10]: 1.7 ± 0.3 h; AUC(0-inf) [1, 13]: 97 ± 22 ng·h/mL; AUC(0-t) [1, 13]: 93 ± 23 ng·h/mL; half-life [1, 14]: 5.9 ± 1.5 h; Cmax ([1]; PO 5 mg/kg, plasma (Table 3)): 7 ± 7 ng/mL; Tmax ([1]; PO 5 mg/kg, plasma (Table 3)): 0.5 h
2 | [2H]c1cc(C)c(NC(=O)c2cnc(Nc3cc(N4CC[C@H](O)C4)nc(C)n3)s2)c(Cl)c1 [Compound IV, N-(2-chloro-4-deutero-6-methylphenyl)-2-[[2-methyl-6-((S)-3-hydroxypyrrolidin-1-yl)pyrimidin-4-yl]amino]thiazole-5-carboxamide] | 8.92 mL/min/kg | 1 L/kg | 1880 ± 153 ng·h/mL | 1880 ± 152 ng·h/mL | 1.4 ± 0.1 h | 892 ± 341 ng·h/mL | 891 ± 341 ng·h/mL | 2.3 ± 0.2 h | 18.9 ± 6.7% | 82 ± 13 ng/mL | 5.5 ± 4.3 h | significantly greater stability | < 24 µL/min/mg | > 0.983 h | intravenous plasma clearance compared to dasatinib and compound III [1]: much lower; intravenous volume of distribution compared to dasatinib and compound III [1]: significantly lower
3 | Cc1nc(Nc2ncc(C(=O)Nc3c(C)cccc3Cl)s2)cc(N2CC[C@@H](N)C2)n1 [Compound XIII, N-(2-chloro-6-methylphenyl)-2-[[2-methyl-6-((R)-3-aminopyrrolidin-1-yl)pyrimidin-4-yl]amino]thiazole-5-carboxamide] |  |  |  |  |  |  |  |  |  |  |  | significantly greater stability |  |  | 
4 | [2H]c1cc(C)c(NC(=O)c2cnc(Nc3cc(N4CC[C@@H](O)C4)nc(C)n3)s2)c(Cl)c1 [Compound V, N-(2-chloro-4-deutero-6-methylphenyl)-2-[[2-methyl-6-((R)-3-hydroxypyrrolidin-1-yl)pyrimidin-4-yl]amino]thiazole-5-carboxamide] | 8.57 mL/min/kg | 1 L/kg | 1960 ± 214 ng·h/mL | 1960 ± 214 ng·h/mL | 1.4 ± 0.1 h | 539 ± 188 ng·h/mL | 524 ± 191 ng·h/mL | 4.4 ± 2.8 h | 11.1 ± 4.3% | 35 ± 19 ng/mL | 5.5 ± 4.3 h | significantly greater stability | < 24 µL/min/mg | > 0.983 h | intravenous plasma clearance compared to dasatinib and compound III [1]: much lower; intravenous volume of distribution compared to dasatinib and compound III [1]: significantly lower
5 | Cc1nc(Nc2ncc(C(=O)Nc3c(C)cccc3Cl)s2)cc(N2CCC(O)CC2)n1 [Compound IX, N-(2-chloro-6-methylphenyl)-2-[[2-methyl-6-(4-hydroxypiperidin-1-yl)pyrimidin-4-yl]amino]thiazole-5-carboxamide] |  |  |  |  |  |  |  |  |  |  |  |  | 56 µL/min/mg | 0.417 h | 
6 | [2H]c1cc(C)c(NC(=O)c2cnc(Nc3cc(N4CCN(CCO)CC4)nc(C)n3)s2)c(Cl)c1 [Compound III] | 20.2 mL/min/kg | 3 L/kg | 835 ± 114 ng·h/mL | 835 ± 114 ng·h/mL | 1.6 ± 0.1 h | 144 ± 68 ng·h/mL | 139 ± 69 ng·h/mL | 4.7 ± 2.2 h | 7.2 ± 4.2% | 9 ± 6 ng/mL | 5.5 ± 4.3 h |  |  | 0.4 h | clearance [1, 6]: 18.6 mL/min/kg; Vd [1, 6]: 3 L/kg; AUC(0-inf) [1, 9]: 917 ± 161 ng·h/mL; AUC(0-t) [1, 9]: 916 ± 161 ng·h/mL; half-life [1, 10]: 1.7 ± 0.2 h; AUC(0-inf) [1, 13]: 137 ± 20 ng·h/mL; AUC(0-t) [1, 13]: 124 ± 26 ng·h/mL; half-life [1, 14]: 8.2 ± 4.1 h; bioavailability ([1]; PO 5 mg/kg versus intravenous 1 mg/kg, AUCinf dose normalized (Table 3)): 6 ± 0.9%; Cmax ([1]; PO 5 mg/kg, plasma (Table 3)): 11 ± 11 ng/mL; Tmax ([1]; PO 5 mg/kg, plasma (Table 3)): 0.5 h
7 | [2H]c1cc(C)c(NC(=O)c2cnc(Nc3cc(N4CC[C@@H](N)C4)nc(C)n3)s2)c(Cl)c1 [Compound VII, N-(2-chloro-4-deutero-6-methylphenyl)-2-[[2-methyl-6-((R)-3-aminopyrrolidin-1-yl)pyrimidin-4-yl]amino]thiazole-5-carboxamide] |  |  |  |  |  |  |  |  |  |  |  | significantly greater stability |  |  | 
8 | Cc1nc(Nc2ncc(C(=O)Nc3c(C)cccc3Cl)s2)cc(N2CCCCC2)n1 [Compound VIII, N-(2-chloro-6-methylphenyl)-2-[[2-methyl-6-(piperidin-1-yl)pyrimidin-4-yl]amino]thiazole-5-carboxamide] |  |  |  |  |  |  |  |  |  |  |  | significantly greater stability |  |  | 
9 | Cc1nc(Nc2ncc(C(=O)Nc3c(C)cccc3Cl)s2)cc(N2CC[C@H](N)C2)n1 [Compound XII, N-(2-chloro-6-methylphenyl)-2-[[2-methyl-6-((S)-3-aminopyrrolidin-1-yl)pyrimidin-4-yl]amino]thiazole-5-carboxamide] |  |  |  |  |  |  |  |  |  |  |  | significantly greater stability |  |  | 
10 | [2H]c1cc(C)c(NC(=O)c2cnc(Nc3cc(N4CCC(O)CC4)nc(C)n3)s2)c(Cl)c1 [Compound II, N-(2-chloro-4-deuterio-6-methyl-phenyl)-2-[[6-(4-hydroxy-1-piperidyl)-2-methyl-pyrimidin-4-yl]amino]thiazole-5-carboxamide] |  |  |  |  |  |  |  |  |  |  |  |  | 44 µL/min/mg | 0.533 h | IC50 [3]: < 1 nM; inhibition of RAF1 ([4]; 1 nM): < 50%; inhibition of RAF1 ([4]; 10 nM): < 50%; inhibition of RAF1 ([4]; 100 nM): < 50%
11 | [2H]c1cc(C)c(NC(=O)c2cnc(Nc3cc(N4CC[C@H](N)C4)nc(C)n3)s2)c(Cl)c1 [Compound VI, N-(2-chloro-4-dutero-6-methylphenyl)-2-[[2-methyl-6-((S)-3-aminopyrrolidin-1-yl)pyrimidin-4-yl]amino]thiazole-5-carboxamide] |  |  |  |  |  |  |  |  |  |  |  | significantly greater stability |  |  | 
